Experiment [1] has as its target T1, hTRPV1 (Homo sapiens, UniProt Q8NER1).
T1 construct: Eurofins-CEREP or Eurofins-PANLABS (contract assay)
Nature of the experiment: TRPV1 channel Ca2+ microfluorimetry (capsaicin 30 nM). It is filed as cell-based. To be noted: 10 μM; agonist capsaicin 30 nM. The source says: (§1) The effects of compound 34 have been evaluated on different ion channels and receptors implicated in pain-related processes to assess the selectivity for TRPM8 channels. First, some TRP channels that play a role in temperature integration and nociception were selected, including hTRPV1, hTRPV3, hTRPA1 and TRPM3. Additionally, the evaluation encompassed the hASIC3 channel with widespread distribution within the peripheral nervous system and contributions to the excitability of primary sensory neurons. In each instance, the compound was subjected to evaluation at a consistent concentration of 10 µM.
(§2) Calcium fluorometry, Patch-Clamp assays and in vivo experiments were performed using the methodology previously described for TRPM8 [35] or TRPM3 [61]. In the Patch -Clamp experiments, the intracellular pipette solution contained (in mM) 140 KCl, 5 EGTA, and 10 mM HEPES, adjusted to pH 7.2 with KOH, and the extracellular solution contained (in mM) 140 NaCl, 2 CaCl2, 1 MgCl2, 10 D-glucose and 10 HEPES, adjusted to pH 7.4 with NaOH. Selectivity against TRPV1, TRPV3, TRPA1 and ASIC3 was subcontracted to Eurofins-CEREP or Eurofins-PANLABS (see ref. [35] for more details).

In another experiment the target is hCGRPR (Homo sapiens, UniProt O60894+Q16602). Nature of the experiment: Radioligand binding at CGRP receptor. To be noted: radioligand [125]hGCRPα. The source says:
(§3) Furthermore, the investigation extended to measuring the binding affinity of compound 34 to calcitonin gene-related peptide hCGRPR, cannabinoid hCB2 and muscarinic hM3 receptors, which are all relevant to different pain conditions.

A further experiment concerns the target T2, hTRPV3 (Homo sapiens, UniProt Q8NET8).
T2 construct: Eurofins-CEREP or Eurofins-PANLABS (contract assay)
T2 sequence (Q8NET8 1-790): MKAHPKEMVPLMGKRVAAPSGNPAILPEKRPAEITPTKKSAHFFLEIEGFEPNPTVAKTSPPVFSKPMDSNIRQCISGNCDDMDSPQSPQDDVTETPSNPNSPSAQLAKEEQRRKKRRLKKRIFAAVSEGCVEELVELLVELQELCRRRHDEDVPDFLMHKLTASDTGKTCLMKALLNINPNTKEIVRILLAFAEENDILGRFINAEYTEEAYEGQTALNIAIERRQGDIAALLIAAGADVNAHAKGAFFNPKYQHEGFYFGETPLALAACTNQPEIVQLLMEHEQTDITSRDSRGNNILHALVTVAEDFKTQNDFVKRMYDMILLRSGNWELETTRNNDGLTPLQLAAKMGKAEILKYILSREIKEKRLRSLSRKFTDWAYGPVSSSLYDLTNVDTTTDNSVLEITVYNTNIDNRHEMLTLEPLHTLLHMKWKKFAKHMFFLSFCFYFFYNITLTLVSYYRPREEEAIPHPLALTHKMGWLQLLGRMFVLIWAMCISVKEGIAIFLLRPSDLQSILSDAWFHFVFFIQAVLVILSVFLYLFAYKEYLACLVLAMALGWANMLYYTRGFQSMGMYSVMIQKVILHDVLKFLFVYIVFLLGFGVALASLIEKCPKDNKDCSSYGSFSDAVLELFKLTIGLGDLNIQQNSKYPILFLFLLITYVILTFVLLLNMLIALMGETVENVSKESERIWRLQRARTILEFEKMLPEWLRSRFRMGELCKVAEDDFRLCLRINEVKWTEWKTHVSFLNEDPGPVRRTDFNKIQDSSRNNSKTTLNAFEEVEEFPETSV
Nature of the experiment: TRPV3 channel Ca2+ microfluorimetry (2-APB 30 μM). Format: cell-based. As to conditions: agonist 2-APB 30 μM.
Excerpt: as §1, §2

The target in the next experiment is hCB2 (Homo sapiens, UniProt P34972). Nature of the experiment: Radioligand binding at cannabinoid CB2 receptor. As to conditions: radioligand [3H]WIN 55212-2.
Sequence of hCB2 (P34972 whole entry): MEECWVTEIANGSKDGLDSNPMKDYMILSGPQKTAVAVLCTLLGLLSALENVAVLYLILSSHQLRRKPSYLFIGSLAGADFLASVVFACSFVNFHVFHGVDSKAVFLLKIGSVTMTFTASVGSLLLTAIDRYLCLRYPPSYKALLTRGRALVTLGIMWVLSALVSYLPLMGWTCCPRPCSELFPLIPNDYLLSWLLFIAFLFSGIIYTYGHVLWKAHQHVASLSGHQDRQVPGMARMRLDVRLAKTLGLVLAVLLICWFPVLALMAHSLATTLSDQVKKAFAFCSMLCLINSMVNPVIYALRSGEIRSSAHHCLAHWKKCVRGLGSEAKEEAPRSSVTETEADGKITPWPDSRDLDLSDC
Excerpt: as §3

Another experiment addresses T3, rTRPM8 (Rattus norvegicus, UniProt Q8R455).
T3 construct: expressed in transfected cells
Nature of the experiment: Patch-Clamp electrophysiology on single HEK293 cells expressing rat TRPM8. Format: cell-based. To be noted: activation by 100 µM menthol; holding voltage −60 mV.
Excerpt: A recent research study using Patch-Clamp, among other techniques, established that menthol occupies a cavity within the TRPM8 S1–S4 transmembrane helix, with the OH group forming an H-bond with the δ-NH of R842 residue, and Van der Waals interactions among the methyl groups of the ^iPr moiety and residues I846 and L843 [41].
This is evident by a negligible current at negative potentials and a linear intensification of the ohmic current at positive voltages. When applying compound 34 at a concentration of […], a noticeable reduction in menthol-induced activity at depolarizing voltages was observed (indicated by the red line) compared to menthol alone. Dose–response relationships for both tested compounds were established through triplicate experiments at various concentrations, applying a holding voltage of −60 mV (as shown in Figure 2B).
as §2
Figure 2 Compound 34 blocks TRPM8-mediated responses evoked by menthol in rTRPM8-expressing HEK293 cells. (A) IV curves obtained after exposure to vehicle solution (green trace), 100 µM menthol (blue trace) and 100 µM menthol + 10 µM 34 (red trace). Peak current data were expressed as pA/pF (to allow comparison among different size cells). Each point is the mean ± SEM of n = 15. (B) Concentration/response curves for rTRPM8 current blockade by 34 at a holding voltage of −60 mV. […]
For orientation: In patch-clamp work, channel activity is measured electrically.

A further experiment addresses T4, hTRPA1 (Homo sapiens, UniProt O75762).
T4 construct: Eurofins-CEREP or Eurofins-PANLABS (contract assay)
Briefly: TRPA1 channel Ca2+ microfluorimetry (allylisothiocyanate 10 μM). Format: cell-based. As to conditions: agonist allylisothiocyanate 10 μM.
Excerpt: as §1, §2

For experiment [2], the target named is T1, hTRPV1. On the set-up: method as in PMID 35269831. As to conditions: model compound; cited from earlier work.
The target in another experiment is hM3 (Homo sapiens, UniProt P20309). Briefly: Radioligand binding at muscarinic M3 receptor. As to conditions: radioligand [3H]4-DMAP.
Sequence of hM3 (P20309 whole entry): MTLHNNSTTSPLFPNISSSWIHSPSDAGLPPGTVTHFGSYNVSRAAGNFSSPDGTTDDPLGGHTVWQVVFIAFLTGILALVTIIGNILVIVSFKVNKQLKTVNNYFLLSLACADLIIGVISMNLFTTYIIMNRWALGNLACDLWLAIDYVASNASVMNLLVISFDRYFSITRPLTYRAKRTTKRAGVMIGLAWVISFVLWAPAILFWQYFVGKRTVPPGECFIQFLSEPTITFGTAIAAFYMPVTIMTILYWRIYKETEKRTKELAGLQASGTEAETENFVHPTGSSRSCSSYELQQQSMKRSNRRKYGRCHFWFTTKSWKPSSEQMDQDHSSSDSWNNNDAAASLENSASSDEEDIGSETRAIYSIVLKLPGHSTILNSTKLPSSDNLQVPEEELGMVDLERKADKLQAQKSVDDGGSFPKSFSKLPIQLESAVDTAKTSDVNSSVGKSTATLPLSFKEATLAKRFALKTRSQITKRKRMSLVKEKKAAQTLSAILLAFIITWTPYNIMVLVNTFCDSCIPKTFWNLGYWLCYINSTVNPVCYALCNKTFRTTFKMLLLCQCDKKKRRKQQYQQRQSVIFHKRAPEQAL
Excerpt: as §3

The target of the next experiment is T5, hASIC3 channel (Homo sapiens, UniProt Q9UHC3).
T5 construct: Eurofins-CEREP or Eurofins-PANLABS (contract assay)
T5 sequence (Q9UHC3 1-531): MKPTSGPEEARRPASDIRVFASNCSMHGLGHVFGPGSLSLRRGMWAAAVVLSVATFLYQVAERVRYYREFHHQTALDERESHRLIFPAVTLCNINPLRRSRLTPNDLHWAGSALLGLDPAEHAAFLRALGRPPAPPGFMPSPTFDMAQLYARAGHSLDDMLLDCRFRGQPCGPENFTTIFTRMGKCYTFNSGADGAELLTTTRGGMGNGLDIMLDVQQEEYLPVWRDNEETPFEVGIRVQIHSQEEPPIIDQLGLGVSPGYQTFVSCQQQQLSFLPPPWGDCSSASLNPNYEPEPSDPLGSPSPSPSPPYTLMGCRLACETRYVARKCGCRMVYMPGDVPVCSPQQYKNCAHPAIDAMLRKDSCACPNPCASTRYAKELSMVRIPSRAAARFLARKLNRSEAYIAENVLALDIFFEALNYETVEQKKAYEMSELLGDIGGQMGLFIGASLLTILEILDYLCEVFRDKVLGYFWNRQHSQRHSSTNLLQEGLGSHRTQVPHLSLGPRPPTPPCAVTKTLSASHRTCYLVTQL
Nature of the experiment: ASIC3 channel functional assay (buffer pH 5.5). Format: cell-based.
Excerpt: as §1, §2

The term inhibition denotes the relative decrease from the control value, in per cent. The term IC50 denotes the concentration at which inhibition is half-maximal. A lower IC50 goes with inhibition by little substance.

T1 sequence (Q8NER1 whole entry): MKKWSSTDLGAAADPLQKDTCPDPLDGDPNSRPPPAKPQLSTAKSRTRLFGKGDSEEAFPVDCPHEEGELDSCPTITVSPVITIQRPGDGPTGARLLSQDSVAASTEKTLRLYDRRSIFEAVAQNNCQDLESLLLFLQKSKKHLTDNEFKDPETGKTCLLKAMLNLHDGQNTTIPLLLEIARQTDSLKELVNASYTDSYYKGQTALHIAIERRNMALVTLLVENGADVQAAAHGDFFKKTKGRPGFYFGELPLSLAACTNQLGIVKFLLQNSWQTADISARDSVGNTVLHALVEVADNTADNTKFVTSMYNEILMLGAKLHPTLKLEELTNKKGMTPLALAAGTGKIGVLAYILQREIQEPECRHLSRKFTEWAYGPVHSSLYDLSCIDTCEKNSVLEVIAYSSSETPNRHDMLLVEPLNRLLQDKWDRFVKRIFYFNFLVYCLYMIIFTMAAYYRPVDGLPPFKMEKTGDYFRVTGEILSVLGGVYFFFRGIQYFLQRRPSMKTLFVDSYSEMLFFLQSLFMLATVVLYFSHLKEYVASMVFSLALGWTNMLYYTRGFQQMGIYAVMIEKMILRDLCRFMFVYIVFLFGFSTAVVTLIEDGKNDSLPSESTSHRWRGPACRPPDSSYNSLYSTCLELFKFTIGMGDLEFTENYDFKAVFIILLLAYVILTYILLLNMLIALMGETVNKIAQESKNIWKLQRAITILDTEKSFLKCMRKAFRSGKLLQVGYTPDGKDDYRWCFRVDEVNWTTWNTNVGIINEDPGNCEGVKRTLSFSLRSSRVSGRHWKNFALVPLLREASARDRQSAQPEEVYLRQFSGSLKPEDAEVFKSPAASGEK
T4 sequence (O75762 whole entry): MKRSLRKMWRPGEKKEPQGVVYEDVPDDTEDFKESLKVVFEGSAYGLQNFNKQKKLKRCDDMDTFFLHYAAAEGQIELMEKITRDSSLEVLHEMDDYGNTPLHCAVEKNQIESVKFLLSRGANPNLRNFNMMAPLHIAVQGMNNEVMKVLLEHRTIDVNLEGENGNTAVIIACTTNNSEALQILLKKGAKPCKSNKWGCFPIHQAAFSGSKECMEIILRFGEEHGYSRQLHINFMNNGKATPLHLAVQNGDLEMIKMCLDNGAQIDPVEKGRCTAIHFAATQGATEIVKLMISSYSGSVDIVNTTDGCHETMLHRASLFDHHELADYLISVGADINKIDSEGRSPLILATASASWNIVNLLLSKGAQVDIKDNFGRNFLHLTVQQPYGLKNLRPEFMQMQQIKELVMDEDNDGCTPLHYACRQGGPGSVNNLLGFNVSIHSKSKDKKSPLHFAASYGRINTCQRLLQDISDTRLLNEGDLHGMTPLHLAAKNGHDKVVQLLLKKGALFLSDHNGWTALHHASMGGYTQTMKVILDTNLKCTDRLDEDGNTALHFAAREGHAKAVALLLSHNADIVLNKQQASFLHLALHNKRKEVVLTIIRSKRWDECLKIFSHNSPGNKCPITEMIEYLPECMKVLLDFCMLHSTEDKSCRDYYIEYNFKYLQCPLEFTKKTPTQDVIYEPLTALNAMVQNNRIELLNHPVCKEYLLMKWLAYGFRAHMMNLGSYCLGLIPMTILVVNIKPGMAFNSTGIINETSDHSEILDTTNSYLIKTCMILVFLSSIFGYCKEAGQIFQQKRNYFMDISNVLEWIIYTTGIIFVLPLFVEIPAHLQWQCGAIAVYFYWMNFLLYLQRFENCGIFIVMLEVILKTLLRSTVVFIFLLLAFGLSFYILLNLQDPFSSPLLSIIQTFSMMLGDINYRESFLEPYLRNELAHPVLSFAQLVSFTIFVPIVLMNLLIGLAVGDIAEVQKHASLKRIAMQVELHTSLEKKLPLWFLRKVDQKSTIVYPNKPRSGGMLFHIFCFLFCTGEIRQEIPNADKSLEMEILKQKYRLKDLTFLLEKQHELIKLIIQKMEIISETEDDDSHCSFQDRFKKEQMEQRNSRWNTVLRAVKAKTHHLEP
T3 sequence (Q8R455 whole entry): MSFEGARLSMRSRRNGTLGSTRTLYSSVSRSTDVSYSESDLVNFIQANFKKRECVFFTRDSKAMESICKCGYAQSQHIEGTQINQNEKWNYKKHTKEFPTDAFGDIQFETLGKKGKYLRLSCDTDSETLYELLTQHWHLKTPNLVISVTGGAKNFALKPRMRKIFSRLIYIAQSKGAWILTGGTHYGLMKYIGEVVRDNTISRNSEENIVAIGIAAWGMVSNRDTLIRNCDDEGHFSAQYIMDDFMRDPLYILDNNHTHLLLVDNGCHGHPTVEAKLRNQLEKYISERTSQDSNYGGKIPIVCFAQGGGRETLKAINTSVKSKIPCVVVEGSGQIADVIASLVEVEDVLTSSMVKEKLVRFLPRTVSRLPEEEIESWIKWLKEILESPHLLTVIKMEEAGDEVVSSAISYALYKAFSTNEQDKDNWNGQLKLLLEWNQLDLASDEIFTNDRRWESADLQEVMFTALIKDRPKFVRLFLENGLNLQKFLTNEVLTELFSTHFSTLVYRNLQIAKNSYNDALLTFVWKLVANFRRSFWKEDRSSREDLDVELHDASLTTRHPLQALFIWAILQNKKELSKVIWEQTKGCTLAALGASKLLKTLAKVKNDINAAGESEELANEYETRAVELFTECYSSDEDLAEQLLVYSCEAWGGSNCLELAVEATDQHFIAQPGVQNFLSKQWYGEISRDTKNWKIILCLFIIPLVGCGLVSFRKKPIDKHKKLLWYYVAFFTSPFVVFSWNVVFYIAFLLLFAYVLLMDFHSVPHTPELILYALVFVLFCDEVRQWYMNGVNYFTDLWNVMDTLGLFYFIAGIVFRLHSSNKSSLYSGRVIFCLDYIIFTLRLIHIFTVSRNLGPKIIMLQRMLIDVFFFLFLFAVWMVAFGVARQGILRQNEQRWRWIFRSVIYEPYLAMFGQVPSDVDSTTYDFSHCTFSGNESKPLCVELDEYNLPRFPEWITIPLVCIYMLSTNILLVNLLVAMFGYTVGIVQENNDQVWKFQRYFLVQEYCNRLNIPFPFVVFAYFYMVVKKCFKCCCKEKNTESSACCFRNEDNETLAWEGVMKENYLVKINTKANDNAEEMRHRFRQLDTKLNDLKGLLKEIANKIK
Sequence of hCGRPR (Q16602 23-461): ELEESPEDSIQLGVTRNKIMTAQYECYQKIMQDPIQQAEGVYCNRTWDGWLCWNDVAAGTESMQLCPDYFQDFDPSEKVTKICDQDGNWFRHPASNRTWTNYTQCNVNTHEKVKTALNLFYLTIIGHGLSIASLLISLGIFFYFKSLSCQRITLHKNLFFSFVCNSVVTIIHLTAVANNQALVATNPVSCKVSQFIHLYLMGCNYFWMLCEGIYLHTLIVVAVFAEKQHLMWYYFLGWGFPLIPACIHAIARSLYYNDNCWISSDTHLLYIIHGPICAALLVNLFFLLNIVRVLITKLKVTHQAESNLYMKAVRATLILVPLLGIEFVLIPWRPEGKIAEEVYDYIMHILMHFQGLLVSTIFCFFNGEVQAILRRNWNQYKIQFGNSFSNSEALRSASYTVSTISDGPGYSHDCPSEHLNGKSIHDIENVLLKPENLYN
Sequence of hCGRPR (O60894 27-148): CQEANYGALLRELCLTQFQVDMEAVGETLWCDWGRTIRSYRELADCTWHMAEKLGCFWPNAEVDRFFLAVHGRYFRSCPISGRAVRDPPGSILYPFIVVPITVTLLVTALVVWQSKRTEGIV

With `C[C@@H]1C(=O)N(C[C@H](Cc2ccccc2)N(Cc2ccccc2)Cc2ccccc2)[C@]1(Cc1ccccc1)C(=O)OC(C)(C)C` [Compound 1], the inhibition at 10 µM is 19.4 ± 1.7% at hTRPV1 [1]; -1 ± 4.3% at hCGRPR; -6.3 ± 5.9% at hTRPV3; 7.3 ± 0.3% at hCB2; 4.2 ± 1.1% on hTRPA1; -4.1 ± 3.1% on hM3. The inhibition at 10 µM against hASIC3 channel is 6 ± 0.9%. At rTRPM8, this molecule gave an IC50 of 600 ± 1660 nM. Moreover, on hTRPV1 [2], the “activation on the TRPV1 channel” value is recorded as “about 30%”.

These data come from PMC10573892, “β-Lactam TRPM8 Antagonists Derived from Phe-Phenylalaninol Conjugates: Structure–Activity Relationships and Antiallodynic Activity” (International Journal of Molecular Sciences, 2023).
